From US20110236316A1, “PEPTIDE TARGETING IMAGING AGENTS AND METHODS OF USE THEREOF” (University of Utah Research Foundation, priority 2008, published 2011)

Legend:
[1] = test system: HT-29 human colon carcinoma xenografts; experiment: In vivo MR molecular imaging in HT-29 xenografts; parameters: species or system mice; conditions: 0.1 mmol/kg iv
Description: In vivo molecular imaging of fibrin-fibronectin complexes in tumor with the targeted contrast agent and MRI was evaluated in female athymic nu/nu mice bearing HT-29 human colon carcinoma xenografts with a T1-weighted 2D spin-echo sequence. A clinical contrast agent, Gd(DTPA-BMA), was used as a control. Competitive targeting of free CLT1 peptide to CLT1-(Gd-DTPA) was also studied with coinjection of CLT1-(Gd-DTPA) and a 3-fold excess of free CLT1 peptide. A group of 3 mice were used for each contrast agent. The mice were anesthetized by intramuscular administration of a mixture of ketamine (45 mg/kg) and xylazine (6 mg/kg) for MRI. The CLT1-(Gd-DTPA) and Gd(DTPA-BMA) was intravenously injected at a dose of 0.1 mmol/kg. Contrast enhanced MR images were acquired before and after injection at 1, 10, 20, 30 and 60 minutes on a Siemens Trio 3T scanner using a human wrist coil. High resolution 3D images were acquired with a 3D FLASH sequence with 25° flip angel, TR/TE=7.8/2.7 ms, slice thickness 0.5 mm, field of view (FOV) 120 mm, voxel size 0.5×0.5×0.5 mm T1-weighted 2D axial tumor images were acquired with a 2D spin echo sequence with TR 400 ms, TE 10 ms, 90° tip angel and FOV 50 mm Mice were sacrificed 24 hours post-injection and tumor tissues were cut and fixed with 3% paraformaldehyde and embedded in paraffin. Tissue sections (4-μm thickness) were incubated in 3% H2O2 for 10 minutes to block endogenous peroxidase activity and boiled in antigen retrieval solution for 15 minutes in microwave. The sections were then incubated with primary antibody overnight and secondary antibody the second day for visualization using the ABC kit (Santa Cruz Biotechnology).
MR signal intensity was also measured and the contrast to noise ratio (CNR) in the tumor tissues was calculated as CNR=(SItissue−SImuscle)/SDnoise.

[2] = test system: MDA-MB-231 human breast carcinoma xenografts; experiment: In vivo MR molecular imaging in MDA-MB-231 xenografts; parameters: species or system mice
[3] = up to 60 minutes post-injection

## CNC(=O)CN(CCN(CCN(CC(=O)[O-])CC(=O)NC)CC(=O)[O-])CC(=O)[O-].[Gd+3] [Gd(DTPA-BMA)]
[1]
  tumor enhancement compared with CLT1-(Gd-DTPA): didn't show a strong tumor enhancement
[1]; [3]
  CNR time course, tumor inner area: decreased rapidly
  CNR time course, tumor periphery: decreased rapidly
[2]; after 30 minutes post-injection, 0.1 mmol/kg
  tumor enhancement (T1-weighted 2D spin-echo MRI): decreased significantly
[2]; first 15 minutes post-injection, CLT1-(Gd-DTPA) 0.05 mmol/kg, Gd(DTPA-BMA) 0.1 mmol/kg
  tumor enhancement (T1-weighted 2D spin-echo MRI): Significant tumor enhancement
